Experimental data: US20030203373A1 (priority 2002, published 2003)

T1: angiotensin-converting-enzyme derived from pig kidney (pig) (UniProt F1RRW5)
T1 sequence (looked up): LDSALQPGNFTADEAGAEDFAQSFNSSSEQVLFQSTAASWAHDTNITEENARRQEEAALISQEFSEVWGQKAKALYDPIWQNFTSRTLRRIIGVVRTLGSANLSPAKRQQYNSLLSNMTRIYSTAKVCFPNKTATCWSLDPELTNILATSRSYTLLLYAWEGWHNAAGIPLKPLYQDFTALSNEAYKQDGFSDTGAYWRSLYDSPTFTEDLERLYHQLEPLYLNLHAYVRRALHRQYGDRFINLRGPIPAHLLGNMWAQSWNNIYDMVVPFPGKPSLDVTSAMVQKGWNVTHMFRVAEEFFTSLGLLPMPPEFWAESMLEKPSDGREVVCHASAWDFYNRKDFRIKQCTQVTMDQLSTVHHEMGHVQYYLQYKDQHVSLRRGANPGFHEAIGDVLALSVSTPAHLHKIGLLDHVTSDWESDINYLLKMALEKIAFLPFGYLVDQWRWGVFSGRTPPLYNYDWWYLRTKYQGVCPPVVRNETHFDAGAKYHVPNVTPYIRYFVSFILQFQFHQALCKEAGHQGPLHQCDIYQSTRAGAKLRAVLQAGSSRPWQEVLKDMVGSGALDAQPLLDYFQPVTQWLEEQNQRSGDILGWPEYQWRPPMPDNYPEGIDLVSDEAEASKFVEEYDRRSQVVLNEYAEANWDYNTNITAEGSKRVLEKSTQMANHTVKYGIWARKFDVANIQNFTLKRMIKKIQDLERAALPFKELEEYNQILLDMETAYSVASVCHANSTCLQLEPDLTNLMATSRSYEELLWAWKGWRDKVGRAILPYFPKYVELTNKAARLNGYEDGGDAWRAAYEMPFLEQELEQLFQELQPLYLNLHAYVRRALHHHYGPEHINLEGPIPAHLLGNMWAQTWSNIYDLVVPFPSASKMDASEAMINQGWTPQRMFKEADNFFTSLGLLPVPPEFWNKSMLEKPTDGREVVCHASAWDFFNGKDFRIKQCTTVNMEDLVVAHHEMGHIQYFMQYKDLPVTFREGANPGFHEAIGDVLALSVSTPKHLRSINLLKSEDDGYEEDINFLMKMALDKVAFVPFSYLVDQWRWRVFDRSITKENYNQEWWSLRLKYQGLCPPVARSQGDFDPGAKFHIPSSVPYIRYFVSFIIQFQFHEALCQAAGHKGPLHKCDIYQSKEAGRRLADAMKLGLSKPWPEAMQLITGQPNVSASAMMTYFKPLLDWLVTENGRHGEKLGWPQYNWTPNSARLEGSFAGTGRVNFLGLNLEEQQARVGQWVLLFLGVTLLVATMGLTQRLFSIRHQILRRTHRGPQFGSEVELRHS


What was measured:
[1] = tested on: normotensive Wister rats; experiment: Bradykinin-potentiating effect on blood pressure in anaesthetized normotensive rats; assay type: in vivo, rat; details: Captopril 1.5 × 10^−4 M + Bradykinin 2.5 × 10^−6 M
Experimental: In the in vivo experiments with normotensive rats the animals were previously anaesthetized and after blood pressure stabilization treated with a constant amount of bradykinin. Subsequently, either Captopril or human BPP were administered, again followed by a constant amount of bradykinin. Afterwards the maximum blood pressure drop was determined and, on the basis of bradykinin as a factor 1, the potentiating factor was determined. In the same way, the systolic and diastolic blood pressure, the percentage middle pressure decrease and the time required to come back to the baseline values were measured (see tables 4a to 4j). A detailed experimental description is given below.
2. Measurement of Blood Pressure in Normotensive and Hypertensive Rats
The trials were conducted on female anaesthetized normotensive Wister rats with weight ranging from 210 to 240 g.
The peptide pANP48-57 used for the in vivo assays was synthesized by Biosynthan (Berlin) with a HPLC-determined purity of 98%.
Anaesthetizing was performed by i.p.-administration of 1 ml/kg Ketavit (100 mg/ml)+Rampun (2%).
In order to conduct the blood pressure measurement, a polyethylene catheter was introduced into the Aorta femuralis and connected with a pressure transducer. A Statham-P23A pressure-transducer was linked to a Gould Polygraph and used to determine the arterial blood pressure. A Hg-manometer was used to calibrate the system.
All substances were dissolved and diluted in a physiological sodium chloride solution and introduced into the Vena jugularis via a catheter.
After stabilization of blood pressure (after about 10 minutes) […] body weight of a 2,5 μM bradykinin-solution (Sigma) was administered.
The middle pressure was determined from the measured diastolic (pd) and systolic (ps) blood pressure by using the following formula: pm=(ps−Pd)×0,42+pd.

[2] = target: T1, angiotensin-converting-enzyme derived from pig kidney (pig); experiment: cell-based or functional assay

| Molecule | potentiating factor (factor by which the blood pressure reducing effect of Bradykinin is potentiated, Bradykinin = 1) [1] | maximal drop of blood pressure ([1]; normotensive rats) | IC50, ACE inhibition [2] [µM] |
| --- | --- | --- | --- |
| C[C@H](CS)C(=O)N1CCC[C@H]1C(=O)O [Captopril, reference compound] | 2 | 56% ± 17.3 | – |
| QVLSEPNEEAGAALSPLPEVPP (N-terminal pyroglutamate) [S492] | – | – | > 300 |
